Source: patent publication US9371331B2, “Modulators of methyl modifying enzymes, compositions and uses thereof” (Constellation Pharmaceuticals, Inc., priority 2012, dated 2016)
Counter-ions that a name gives are not always drawn. Like-named read-outs stand apart in the source and are kept apart here.

How the values were obtained:
[1] = system: H3K27me3 mark in HeLa cells; assay: H3K27me3 Alpha Hela Assay (AlphaLISA); format: cell-based; details: 72 hrs; for EC50: read-out: H3K27me3_Alpha_HeLa_ (EC50)
Procedure, shortened: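 HeLa cells (1,000/well) were treated with ten 3-fold compound doses for 72 h at 37 °C. After histone extraction, H3K27me3 was detected by AlphaLISA (anti-K27me3 acceptor beads, biotinylated anti-H3, streptavidin donor), with viability measured on a duplicate plate. Data were normalized to DMSO and curve-fitted.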

EZH2 (rPRC2) = EZH2 (rPRC2) (Homo sapiens, UniProt Q15910); assay: EZH2 assay: rPRC2, biotinylated oligonucleosomes, 3H SAM methyl transfer (FlashPlate scintillation); format: biochemical; details: biotinylated oligonucleosome substrate
[2] = system: H3K27me3 mark in HeLa cells; assay: H3K27me3 MSD Hela Assay; format: cell-based; details: read-out: H3K27me3_MSD_HeLa_ (EC50)
Procedure, shortened: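 HeLa cells treated with compound at various concentrations for 96 h at 37 °C, then lysed with high-salt extraction. H3K27me3 measured by MSD electrochemiluminescence immunoassay on total-H3 capture plates. Dose-dependent inhibition normalised to DMSO wells and fitted to curves.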

Y641N EZH2 = Y641N EZH2 (Homo sapiens, UniProt Q15910, Y641N); assay: Y641N EZH2 assay: as EZH2 assay, with reconstituted H3K27Me2 oligonucleosomes as substrate; format: biochemical
[3] = EZH2 IC50, wild-type EZH2 (rPRC2)
[4] = Y641N EZH2 IC50, Y641N mutant EZH2, H3K27Me2 oligonucleosome substrate
[5] = wild-type EZH2 (rPRC2), read-out: EZH2 IC50
[6] = Y641N mutant EZH2, H3K27Me2 oligonucleosome substrate, read-out: Y641N EZH2 IC50

Sequence of EZH2 (rPRC2) (Q15910 whole entry): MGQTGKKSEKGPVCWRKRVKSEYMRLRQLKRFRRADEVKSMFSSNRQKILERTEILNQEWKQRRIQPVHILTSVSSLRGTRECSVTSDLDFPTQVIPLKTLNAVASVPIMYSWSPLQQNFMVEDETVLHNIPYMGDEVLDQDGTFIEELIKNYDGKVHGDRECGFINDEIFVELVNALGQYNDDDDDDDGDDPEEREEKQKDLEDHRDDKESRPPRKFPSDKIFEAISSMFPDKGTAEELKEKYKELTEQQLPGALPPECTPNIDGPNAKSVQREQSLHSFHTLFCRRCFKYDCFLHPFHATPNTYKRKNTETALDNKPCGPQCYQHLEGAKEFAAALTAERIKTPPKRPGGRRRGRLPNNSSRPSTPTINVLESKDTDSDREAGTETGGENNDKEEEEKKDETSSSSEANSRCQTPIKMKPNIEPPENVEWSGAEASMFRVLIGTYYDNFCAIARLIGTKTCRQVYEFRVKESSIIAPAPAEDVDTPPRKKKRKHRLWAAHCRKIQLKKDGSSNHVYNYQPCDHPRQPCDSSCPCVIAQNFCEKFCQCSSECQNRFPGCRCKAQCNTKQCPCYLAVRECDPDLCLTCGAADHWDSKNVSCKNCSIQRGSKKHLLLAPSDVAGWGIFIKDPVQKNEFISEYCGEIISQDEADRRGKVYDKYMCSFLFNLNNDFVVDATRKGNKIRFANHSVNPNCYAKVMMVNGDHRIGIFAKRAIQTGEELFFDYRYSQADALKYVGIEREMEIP
Sequence of EZH2 (rPRC2) (O75530 whole entry partner): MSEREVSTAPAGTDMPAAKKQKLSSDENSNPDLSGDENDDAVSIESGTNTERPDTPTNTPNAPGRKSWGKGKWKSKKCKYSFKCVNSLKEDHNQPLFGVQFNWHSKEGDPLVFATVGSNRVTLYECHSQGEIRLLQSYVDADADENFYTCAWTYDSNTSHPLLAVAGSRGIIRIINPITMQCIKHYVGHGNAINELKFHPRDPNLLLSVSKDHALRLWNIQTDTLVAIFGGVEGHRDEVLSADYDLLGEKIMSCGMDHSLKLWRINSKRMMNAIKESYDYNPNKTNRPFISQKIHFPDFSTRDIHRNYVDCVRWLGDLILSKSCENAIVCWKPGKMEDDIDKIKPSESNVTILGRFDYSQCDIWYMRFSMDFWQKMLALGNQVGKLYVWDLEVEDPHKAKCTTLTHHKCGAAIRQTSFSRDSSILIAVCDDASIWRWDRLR
Sequence of EZH2 (rPRC2) (Q15022 whole entry partner): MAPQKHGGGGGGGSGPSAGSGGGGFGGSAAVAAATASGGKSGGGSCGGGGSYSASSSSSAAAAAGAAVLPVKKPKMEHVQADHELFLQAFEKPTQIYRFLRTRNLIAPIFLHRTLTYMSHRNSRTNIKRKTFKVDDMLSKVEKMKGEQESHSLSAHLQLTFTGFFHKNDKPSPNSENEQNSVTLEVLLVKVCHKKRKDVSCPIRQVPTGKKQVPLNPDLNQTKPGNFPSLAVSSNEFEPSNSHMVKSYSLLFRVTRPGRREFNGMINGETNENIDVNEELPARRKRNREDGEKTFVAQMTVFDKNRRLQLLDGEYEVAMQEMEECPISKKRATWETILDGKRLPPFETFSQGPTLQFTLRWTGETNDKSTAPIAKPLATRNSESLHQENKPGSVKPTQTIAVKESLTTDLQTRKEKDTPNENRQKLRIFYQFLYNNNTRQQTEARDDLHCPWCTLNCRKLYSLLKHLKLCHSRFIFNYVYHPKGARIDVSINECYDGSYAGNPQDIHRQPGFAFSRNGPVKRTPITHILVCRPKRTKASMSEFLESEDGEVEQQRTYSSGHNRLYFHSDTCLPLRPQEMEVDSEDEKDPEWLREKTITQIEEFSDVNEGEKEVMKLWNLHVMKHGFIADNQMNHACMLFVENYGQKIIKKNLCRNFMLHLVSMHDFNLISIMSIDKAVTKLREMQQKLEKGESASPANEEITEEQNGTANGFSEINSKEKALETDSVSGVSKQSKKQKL
Sequence of Y641N EZH2 (Q15910 whole entry Y641N): as the sequence (Q15910 whole entry) above, with Y641N counted along it
Sequence of Y641N EZH2 (O75530 whole entry partner): as the sequence (O75530 whole entry partner) above
Sequence of Y641N EZH2 (Q15022 whole entry partner): as the sequence (Q15022 whole entry partner) above

Row | Molecule | EC50 ([1]; Homo sapiens) | IC50 (EZH2 (rPRC2); [3]) | EC50 ([2]; Homo sapiens, HeLa, 96 h) | IC50 (Y641N EZH2; [4]) | IC50 (EZH2 (rPRC2); read-out: EZH2 IC50, wild-type EZH2 (rPRC2)) | H3K27me3_Alpha_HeLa_ (EC50) [1] | IC50 (EZH2 (rPRC2); [5]) | IC50 (Y641N EZH2; [6]) | EC50 [1] | EC50 ([2]; HeLa cells, MSD, 96 hours)
1 | COc1cc(C)[nH]c(=O)c1CNC(=O)c1c(C)n(C(C)C(C)OC)c2ccccc12 (racemic) [Compound 294, (±)-N-((4-methoxy-6-methyl-2-oxo-1,2-dihydropyridin-3-yl)methyl)-1-(3-methoxybutan-2-yl)-2-methyl-1H-indole-3-carboxamide] | < 0.4 µM | < 0.1 µM | < 0.4 µM | < 0.1 µM |  |  |  |  |  | 
2 | COc1cc(C)[nH]c(=O)c1CNC(=O)c1c(C)n(C(C)c2ccccc2)c2ccccc12 (single isomer, unassigned) [Compound 114, (R or S)N-((4-methoxy-6-methyl-2-oxo-1,2-dihydropyridin-3-yl)methyl)-2-methyl-1-(1-phenylethyl)-1H-indole-3-carboxamide] | 0.4 to 2 µM | < 0.1 µM | < 0.4 µM | < 0.1 µM |  |  |  |  |  | 
3 | COCC(C)n1c(C)c(C(=O)NCc2c(OC)cc(C)[nH]c2=O)c2ccccc21 (single isomer, unassigned) [Compound 224, N-((4-methoxy-6-methyl-2-oxo-1,2-dihydropyridin-3-yl)methyl)-1-(1-methoxypropan-2-yl)-2-methyl-1H-indole-3-carboxamide] | < 0.4 µM |  | < 0.4 µM | < 0.1 µM | < 0.1 µM |  |  |  |  | 
4 | COc1cc(C)[nH]c(=O)c1CNC(=O)c1c(C)n(C(C)C(C)OC)c2ncccc12 (single isomer, unassigned) [Compound 261, N-((4-methoxy-6-methyl-2-oxo-1,2-dihydropyridin-3-yl)methyl)-1-((2R or 2S, 3R or 3S)-3-methoxybutan-2-yl)-2-methyl-1H-pyrrolo[2,3-b]pyridine-3-carboxamide] | < 0.4 µM | < 0.1 µM | < 0.4 µM | < 0.1 µM |  |  |  |  |  | 
5 | COc1cc(C)[nH]c(=O)c1CNC(=O)c1c(C)n(C(C)C2CCOCC2)c2ncccc12 (single isomer, unassigned) [Compound 288, (R or S)-N-((4-Methoxy-6-methyl-2-oxo-1,2-dihydropyridin-3-yl)methyl)-2-methyl-1-(1-(tetrahydro-2H-pyran-4-yl)ethyl)-1H-pyrrolo[2,3-b]pyridine-3-carboxamide] | < 0.4 µM | < 0.1 µM | 0.4 to 2 µM | < 0.1 µM |  |  |  |  |  | 
6 | COc1cc(C)[nH]c(=O)c1CNC(=O)c1c(C)n(C(C)C2CCOCC2)c2ccccc12 (single isomer, unassigned) [Compound 298, (R or S)-N-((4-methoxy-6-methyl-2-oxo-1,2-dihydropyridin-3-yl)methyl)-2-methy1-1-(1-(tetrahydro-2H-pyran-4-yl)ethyl)-1H-indole-3-carboxamide] | < 0.4 µM |  | < 0.4 µM |  |  |  |  |  |  | 
7 | COc1cc(C)[nH]c(=O)c1CNC(=O)c1c(C)n(C(C)C2CCOCC2)c2cc(F)ccc12 (single isomer, unassigned) [Compound 300, (R or S)-6-fluoro-N-((4-methoxy-6-methyl-2-oxo-1,2-dihydropyridin-3-yl)methyl)-2-methyl-1-(1-(tetrahydro-2H-pyran-4-yl)ethyl)-1 H-indole-3-carboxamide] | < 0.4 µM | < 0.1 µM | < 0.4 µM | < 0.1 µM |  |  |  |  |  | 
8 | COc1cc(C)[nH]c(=O)c1CNC(=O)c1c(C)n(C(C)C2CCNCC2)c2ccccc12 (single isomer, unassigned) [Compound 326, (R or S)—N-((4-methoxy-6-methyl-2-oxo-1,2-dihydropyridin-3-yl)methyl)-2-methyl-1-(1-(piperidin-4-yl)ethyl)-1H-indole-3-carboxamide hydrochloride] | 0.4 to 2 µM | < 0.1 µM | 0.4 to 2 µM | < 0.1 µM |  |  |  |  |  | 
9 | Cc1cc(C)c(CNC(=O)c2c(C)n(C(C)c3cccc(C#N)c3)c3ccccc23)c(=O)[nH]1 (centres unmarked) [Compound 187, 1-(1-(3-cyanophenyl)ethyl)-N-((4,6-dimethyl-2-oxo-1,2-dihydropyridin-3-yl)methyl)-2-methyl-1H-indole-3-carboxamide] | 0.4 to 2 µM | < 0.1 µM | 0.4 to 2 µM | 0.1 to 1 µM |  |  |  |  |  | 
10 | COc1cc(C)[nH]c(=O)c1CNC(=O)c1c(C)n(-c2cccc3c2CCCN3S(C)(=O)=O)c2ccccc12 [Compound 371, N-((4-methoxy-6-methyl-2-oxo-1,2-dihydropyridin-3-yl)methyl)-2-methyl-1-(1-(methylsulfonyl)-1,2,3,4-tetrahydroquinolin-5-yl)-1H-indole-3-carboxamide] |  |  |  |  |  | *(3.33 μM) | < 0.1 µM | < 0.1 µM |  | 
11 | (±)-1-(1-(4,4-difluorocyclohexyl)ethyl)-N-((4-methoxy-6-methyl-2-oxo-1,2-dihydropyridin-3-yl)methyl)-2-methyl-1H-indole-3-carboxamide [Compound 304] |  |  |  |  |  |  | < 0.1 µM | < 0.1 µM | < 0.4 µM | < 0.4 µM
